Values of other authors, collected in patent publication US6719977B1, “Methods to potentiate cancer therapies” (The General Hospital Corporation, priority 1998, dated 2004).

Key:
[1] = collagenase treatment
[2] = infusion of collagenase
[3] = animal models
[4] = animal models; remark: listed apart in the source
[5] = animal models; remark: listed apart in the source
[6] = infusion of relaxin; fluid-filled subcutaneous balloon
fibroblast = details: a number of experimental settings

In the case of collagenase, the hydraulic conductance [1] is listed as “increases hydraulic conductance” and the “penetration of small and large molecules into a tumor” value [2] is listed as “dramatically facilitates penetration”.
For relaxin, the “parenchymal fibrosis accompanying oxidative pulmonary damage induced by bleomycin” value [3] is listed as “prevent”, the “accumulation of collagen within implanted sponges” value [4] is listed as “prevent” and the “formation of fibrotic capsules surrounding impenetrable foreign bodies” value [5] is listed as “prevent”. For the same substance, the “resistance to balloon expansion (pressure-volume relationship)” value [6] was “decreased the resistance to balloon expansion”.
For “γ-interferon [a pleiotypic cytokine produced by helper T cells]”, the “fibroblast proliferation and associated matrix deposition” value (fibroblast) is listed as “inhibit fibroblast proliferation and associated matrix deposition”.
